Source: patent publication US5534654A, “Aromatic-sulfonamide-type hydroxamic acid derivative” (Shionogi & Co., Ltd., priority 1991, dated 1996)

tested on: Vascular Endothelial Cells of Human Umbilical Vein; assay: Assay of Inhibition Against the Cell Growth of Vascular Endothelial Cells of Human Umbilical Vein (MTT method); assay type: cell-based; conditions: 72 h, 3-day incubation, OD570
Method: Assay of Inhibition Against the Cell Growth of Vascular Endothelial Cells of Human Umbilical Vein
Human vascular endothelial cells used had been obtained from human umbilical vein by perfusion method using an enzyme solution of collagenase and have been maintained by subculturing in a culture solution, i.e., M199 medium (Gibco, Inc.) supplemented with 20% fetal bovine serum (FBS; Gibco, Inc.), 100 μg/ml endothelial mitogen (Funakoshi), 90 μg/ml heparin, 50 IU/ml Penicillin and 50 μg/ml Streptomycin. […] On the next day, to each well was added 10 μl of a medium containing a sample at various concentrations. […] After 3-day-incubation, to the mixture was added 50 μl of 3 mg/ml MTT solution (a solution of 3-(4,5-dimethyl-2-thiazolyl)-2,5-diphenyl-2H-tetrazolium bromide dissolved in a culture solution) and the incubation was continued for 4 hr. Cells and MTT pigment were solubilized by the addition of 50 μl of 20% SDS solution (sodium dodecylsulfate dissolved in 0.02N HCl) and the incubation continued for 1 hr, which was followed by the determination of OD570 value on spectrophotometer.

Row | SMILES | IC50
1 | O=C(/C=C/C#Cc1cccc(NS(=O)(=O)c2ccccc2)c1)NO [Compound I-18, (2E)-5-[3-(Phenylsulfonylamino)phenyl]pent-2-en-4-ynohydroxamic Acid] | 13.8 µM
2 | O=C(/C=C/C=C/c1cccc(NS(=O)(=O)c2ccccc2)c1)NO [Compound I-10, (2E)(4E)-5-(3-Phenylsulfonylaminophenyl)pentadienohydroxamic Acid] | 20.4 µM
3 | CN(c1cccc(C#C/C=C/C(=O)NO)c1)S(=O)(=O)c1ccccc1 [Compound I-19, (2E)-5-[3-(N-Methylphenylsulfonylamino)phenyl]pent-2-en-4-ynohydroxamic Acid] | 26.7 µM
4 | O=C(/C=C/C=C/C=C/c1ccccc1NS(=O)(=O)c1ccccc1)NO [Compound I-9, (2E)(4E)(6E)-7-(2-Phenylsulfonylaminophenyl)-heptatrienohydroxamic Acid] | 25.6 µM

tested on: Cell Adhesion of Leukocytes onto Vascular Endothelial Cells of Human Umbilical Vein; assay: Assay of Inhibition Activity Against Cell Adhesion of Leukocytes (HL60 cells) onto Vascular Endothelial Cells of Human Umbilical Vein; assay type: cell-based; conditions: 16-hour incubation with sample, then TNF 4 hr, HL-60 cells 30 min, Rose Bengal OD570
Method: Assay of Inhibition Activity Against Cell Adhesion of Leukocytes onto Vascular Endothelial Cells of Human Umbilical Vein
Human vascular endothelial cells used had been obtained from human umbilical vein by perfusion method using an enzyme solution of collagenase and have been maintained by subculturing in a culture solution, i.e., M199 medium (Gibco, Inc.) supplemented with 20% fetal bovine serum (FBS; Gibco, Inc.), 100 μg/ml endothelial mitogen (Funakoshi), 90 μg/ml heparin, 50 IU/ml Penicillin and 50 μg/ml Streptomycin. HL60 cells (human myelocytic leukemia cells) were purchased from Flow, Inc. and have been maintained by subculturing in RPMI1640 medium containing 10% FBS.
Four hours later, to each well was added 4 μl of a medium containing a sample at various concentrations. […] After 16-hour-incubation, 4 μl of 1×10^4 μ/ml TNF solution (tumor necrosis factor dissolved in a medium solution) was added and the incubation was continued for 4 hr. The resultant medium solution containing the sample was then filtered with suction and washed (×3) with DMEM solution containing 10% FBS, which was followed by the addition of 200 μl suspension of 3×10^5 HL-60 cells suspended in DMEM containing 10% FBS. The incubation was carried out at 37° C. for 30 min. […] After being allowed to stand for 5 min at room temperature, the supernatant was removed by aspiration, which was followed by washing (×2) with DMEM solution containing 10% FBS. A mixture of ethanol/phosphate-buffered physiological saline (1:1) was added and the resultant mixture was allowed to stand for 30 min to solubilize Rose Bengal pigment, which was followed by the determination of OD570 value on spectrophotometer.

Row | SMILES | IC50
5 | CN(c1cccc(/C=C/C=C/C(=O)NO)c1)S(=O)(=O)c1ccccc1 [Compound I-11] | 6.4 µM
6 | O=C(/C=C/C#Cc1cccc(NS(=O)(=O)c2ccccc2)c1)NO [Compound I-18, (2E)-5-[3-(Phenylsulfonylamino)phenyl]pent-2-en-4-ynohydroxamic Acid] | 2.5 µM
7 | O=C(/C=C/C=C/c1cccc(NS(=O)(=O)c2ccccc2)c1)NO [Compound I-10, (2E)(4E)-5-(3-Phenylsulfonylaminophenyl)pentadienohydroxamic Acid] | 5.3 µM
8 | CN(c1ccccc1/C=C/C=C/C(=O)NO)S(=O)(=O)c1ccccc1 [Compound I-7, (2E)(4E) -5-[2-(N-Methylphenylsulfonylamino)phenyl]-2,4-pentadienohydroxamic Acid] | 4.5 µM
9 | CN(c1cccc(C#C/C=C/C(=O)NO)c1)S(=O)(=O)c1ccccc1 [Compound I-19, (2E)-5-[3-(N-Methylphenylsulfonylamino)phenyl]pent-2-en-4-ynohydroxamic Acid] | 6.3 µM
10 | O=C(/C=C/C=C/c1cc2ccccc2n1S(=O)(=O)c1ccccc1)NO [Compound I-17, (2E)(4E)-5-(1-phenylsulfonylindol-2-yl)pentadienohydroxamic Acid] | 8.3 µM
11 | O=C(/C=C/C=C/C=C/c1ccccc1NS(=O)(=O)c1ccccc1)NO [Compound I-9, (2E)(4E)(6E)-7-(2-Phenylsulfonylaminophenyl)-heptatrienohydroxamic Acid] | 6.5 µM

tested on: NIH3T3 cells transformed by ras gene; assay: Detransformation of Cells Transformed by Ras Gene; assay type: cell-based; conditions: Mus musculus, 24 hours, 2-fold serial dilutions, morphological observation, read-out: MTC: Minimum Concentration Required for the Detransformation of Cells Transformed by Ras Gene
Method: Medium used: 9.5 g of Dulbecco's Eagle MEM medium (Nissui Seiyaku) solution, 20 ml of 7% sodium hydrogen carbonate solution are added to distilled water and a fetal bovine serum (Flow Laboratories, Inc.) was added to a final concentration of 10 v/v % to obtain the medium. The medium (100 μl) was added to a 96-well plate (Sumitomo Bakelite) and NIH3T3 cells transformed by ras gene (5×10^3 cells/well) were seeded. The plate was incubated for 24 hr in a 5% carbon dioxide gas incubator. Then a sample to be tested was added in such a manner as to give 2-fold serial dilutions. After 24 hours, cells were observed morphologically to evaluate the detransformation activity.
Minimum Concentration Required for the Detransformation of Cells Transformed by Ras Gene

Row | SMILES | minimal effective concentration
12 | CN(c1cccc(/C=C/C=C/C(=O)NO)c1)S(=O)(=O)c1ccccc1 [Compound I-11] | 0.6 µM
13 | O=C(/C=C/C=C/c1cc2ccccc2cc1NS(=O)(=O)c1ccccc1)NO [Compound I-20, (2E)(4E)-5-(3'-Phenylsulfonylamino-2'-naphthyl)pentadienohydroxamic Acid] | 0.6 µM
14 | O=C(/C=C/C#Cc1cccc(NS(=O)(=O)c2ccccc2)c1)NO [Compound I-18, (2E)-5-[3-(Phenylsulfonylamino)phenyl]pent-2-en-4-ynohydroxamic Acid] | 0.039 µM
15 | O=C(/C=C/C=C/c1ccc(NS(=O)(=O)c2ccccc2)cc1)NO [Compound I-12, (2E)(4E)-5-(4-Phenylsulfonylaminophenyl)pentadienohydroxamic Acid] | 3.1 µM
16 | O=C(/C=C/C=C/c1cccc(NS(=O)(=O)c2ccccc2)c1)NO [Compound I-10, (2E)(4E)-5-(3-Phenylsulfonylaminophenyl)pentadienohydroxamic Acid] | 0.3 µM
17 | O=C(/C=C/C=C/c1ccccc1NS(=O)(=O)c1ccccc1)NO [Compound I-4, (2E)(4E)-5-(2-Phenylsulfonylaminophenyl)pentadienohydroxamic Acid] | 1.6 µM
18 | CN(c1ccccc1/C=C/C=C/C(=O)NO)S(=O)(=O)c1ccccc1 [Compound I-7, (2E)(4E) -5-[2-(N-Methylphenylsulfonylamino)phenyl]-2,4-pentadienohydroxamic Acid] | 0.2 µM
19 | CN(c1cccc(C#C/C=C/C(=O)NO)c1)S(=O)(=O)c1ccccc1 [Compound I-19, (2E)-5-[3-(N-Methylphenylsulfonylamino)phenyl]pent-2-en-4-ynohydroxamic Acid] | 0.3 µM
20 | O=C(/C=C/C=C/c1cc2ccccc2n1S(=O)(=O)c1ccccc1)NO [Compound I-17, (2E)(4E)-5-(1-phenylsulfonylindol-2-yl)pentadienohydroxamic Acid] | 3.2 µM
21 | O=C(/C=C/C=C/C=C/c1ccccc1NS(=O)(=O)c1ccccc1)NO [Compound I-9, (2E)(4E)(6E)-7-(2-Phenylsulfonylaminophenyl)-heptatrienohydroxamic Acid] | 3.2 µM
